Measurements: patent US12453778B2, “Incremental dose finding in controlled-release PTH compounds” (Ascendis Pharma Bone Diseases A/S, priority 2016, dated 2025)
Like-named read-outs stand apart in the source and are kept apart here.

Assays:
[1] = cited from earlier work; for osteosarcoma rate: rats, daily injections
[2] = pump delivery, over 6-months; cited from earlier work
[3] = cited from earlier work
[4] = 6-year follow-up; cited from earlier work
[5] = Dose range finding / dose adjustment study with daily subcutaneous injections of TransCon PTH; parameters: time of peak calcium concentration postdose / increases in calcium to pre-study levels / calcium increases: dose or concentration left out as unconfirmed; conditions: for sCa compared to pre-study levels: severe hypercalcaemic levels
Method: Dose Range Finding Study—Dose Adjustment Study in Cynomolgus Monkeys with Daily Subcutaneous Injections with TransCon PTH
This study was conducted in order to test the hypothesis of performing dose adjustments with TransCon PTH in 25% increments in response to hypocalcemia or hypercalcemia. The study was performed in male and female Cynomolgus monkeys. Four groups with one male and one female animal in each were dosed for four weeks starting at doses 0.2, 0.5, 1.0 and 2.0 μg/kg/day, respectively. Serum calcium (sCa) levels in the animals were measured pre-dose and post-dose on days -6, 1, 3, 7, 8, 12, 14, 16, 19, 23, 26, 28 and 29.

CC[C@H](C)[C@H](NC(=O)[C@H](CCC(=O)O)NC(=O)[C@H](CO)NC(=O)[C@@H](NC(=O)[C@@H](N)CO)C(C)C)C(=O)N[C@@H](CCC(N)=O)C(=O)N[C@@H](CC(C)C)C(=O)N[C@@H](CCSC)C(=O)N[C@@H](Cc1cnc[nH]1)C(=O)N[C@@H](CC(N)=O)C(=O)N[C@@H](CC(C)C)C(=O)NCC(=O)N[C@@H](CCCCN)C(=O)N[C@@H](Cc1cnc[nH]1)C(=O)N[C@@H](CC(C)C)C(=O)N[C@@H](CC(N)=O)C(=O)N[C@@H](CO)C(=O)N[C@@H](CCSC)C(=O)N[C@@H](CCC(=O)O)C(=O)N[C@@H](CCCN=C(N)N)C(=O)N[C@H](C(=O)N[C@@H](CCC(=O)O)C(=O)N[C@@H](Cc1c[nH]c2ccccc12)C(=O)N[C@@H](CC(C)C)C(=O)N[C@@H](CCCN=C(N)N)C(=O)N[C@@H](CCCCN)C(=O)N[C@@H](CCCCN)C(=O)N[C@@H](CC(C)C)C(=O)N[C@@H](CCC(N)=O)C(=O)N[C@@H](CC(=O)O)C(=O)N[C@H](C(=O)N[C@@H](Cc1cnc[nH]1)C(=O)N[C@@H](CC(N)=O)C(=O)N[C@@H](Cc1ccccc1)C(=O)O)C(C)C)C(C)C [PTH(1-34)]
osteosarcoma rate [1]: dose dependent increase | calcium levels [2]: normal, steady state calcium levels with minimal fluctuation

PTH(1-84): Natpara, PTH(1-84), approved 2015 for once-daily subcutaneous injection in hypoparathyroidism; SEQ ID NO: 1
urinary calcium excretion ([3]; 2-8 hours after injection): reduced | urinary phosphate excretion ([3]; after injection): increased only during the first 8 hours | patients developing hypercalcemia at one or more measurements ([3]; during a 24-hour period after injection): 71% | participants achieving normal blood calcium levels on reduced doses of calcium supplements and active forms of vitamin D ([3]; once-daily subcutaneous injection, pivotal trial): 42% | urinary calcium excretion ([3]; over the 24-hour period): did not change | deaths in high dose group ([1]; high dose rats, dosing discontinued, primarily from metastatic osteosarcoma): excessive deaths | osteosarcoma rate [1]: dose dependent increase | BMD by DXA [4]: increases in lumbar spine and declines in distal ⅓ radius | bone turnover markers [4]: remained greater than pretreatment values

TransCon PTH: controlled-release PTH compound administered subcutaneously to cynomolgus monkeys; not tied to a numbered conjugate
sCa compared to pre-study levels ([5]; Day 3, female dosed at 2.0 μg/kg/day): ≤ 1.34 × | sCa compared to pre-study levels ([5]; Day 3, male dosed at 2.0 μg/kg/day): up to 1.42 × | time of peak calcium concentration postdose ([5]; Day 23, male): 4 h | increases in calcium to pre-study levels ([5]; Day 26, male and female): up to 1.17 × | calcium increases ([5]; Day 29, both sexes): still present | tolerability ([5]; daily subcutaneous administration at 0.2, 0.5 and 1.0 jag/kg/day for 28 days): well tolerated
